Measurements published in patent publication US4853401A, “Spiro-hydantoins as aldose reductase inhibitors” (priority 1987, dated 1989).

Experiments:
[1] = test system: accumulation of sorbitol in the sciatic nerves; assay: Preventive effect of single dose: sorbitol in sciatic nerves; type: in vivo, Sprague Dawley rats; conditions: 10 mg/kg oral
Description: 2.3. In vivo effects of a single dose of compound No. 2 (CP 3192 AR) on the variation in the proportion of plasma glucose and the accumulation of sorbitol in the crystalline lenses and sciatic nerves of diabetic rats.
2.3.1. Preventive effect. CP 3192 AR was administered simultaneously with the induction of diabetes. The experiment was performed on 33 male Sprague Dawley rats weighing about 200 g.
At time 0 hours, 3 rats were sacrificed and used as non-diabetic controls. 30 fats fasted the previous day were made diabetic by an intraperitoneal injection of streptozotocin (75 mg/kg). A dose of 10 mg/kg of CP 3192 AR was simultaneously administered orally to 15 of the rats. The other 15 were given a placebo. 3 control rats and 3 rats treated with CP 3192 AR were sacrificed 2, 4, 8, 24 and 48 hours after induction of diabetes.
An estimate was made of the effects of the product on the proportion of plasma glucose and the sorbitol content of the crystalline lenses and sciatic nerves.

[2] = test system: accumulation of sorbitol in the sciatic nerves; assay: Inhibition of accumulation of sorbitol in sciatic nerves of diabetic rats; type: in vivo, Sprague Dawley rats; conditions: oral 25 mg/kg at 0, 7 and 24 h, sacrificed 27 h
Description: (§1) 2.1 Inhibition of accumulation of sorbitol in crystalline lenses and nerves of diabetic rats:
(§2) The effects of the products according to the invention on the proportion of plasma glucose and the accumulation of sorbitol in the crystalline lenses and sciatic nerves of rats made diabetic by streptozotocin were examined by the method of M. J. Peterson, et al (Metabolism, 28, 456-461 (1979)).
(§3) Fasted Sprague Dawley rats were made diabetic by intraperitoneal injection of streptozotocin (75 mg/kg). The product under test was orally administered at a dose of 25 mg/kg after 0, 7 and 24 hours. The rats were sacrificed 27 hours after induction of diabetes. The crystalline lenses and sciatic nerves were taken and preserved at -20° C. until analysed. The crystalline lenses and sciatic nerves were homogenized in water and the proteins were precipitated from ethanol. The precipitate was eliminated by centrifuging and the supernatant liquid was lyophylised. The sorbitol in the sample was determined by the method of B. Bjorkqvist (J. of Chromatograph, 218, 65-71 (1981)), adapted by A. Lenaers et al. (Arch. Intern. Physiol. Bioch., 91, B, 62-63 (1983)).
(§4) The sample was dissolved in pyridine containing galactitol as an internal standard. Derivatives were formed therefrom by phenylisocyanate during incubation for 1 hour at 60° C. The reaction was then stopped by adding methanol and the derivatives were separated and determined by HPLC.
(§5) The results are expressed as percentage inhibition of the accumulation of sorbitol, compared with the controls.

[3] = Acute oral toxicity (LD50); type: in vivo; conditions: mouse, in vivo, mice, read-out: Lethal dose LD50
Description: The LD 50 was calculated by the method of Litchfield and Wilcoxon (J. Pharmacol. Exp. Ther., 96, 99, 1949) and is expressed in mg/kg. The products were orally administered to mice.
Behaviour was studied, 2, 4, 6 and 24 hours after treatment. Observation was continued if symptoms persisted at that time. Deaths were recorded during the 14 days after treatment. The results are given in Table II, in which the numbers of the compounds are the same as the numbers given in column 1 of Table I.

[4] = test system: accumulation of sorbitol in the crystalline lenses; assay: Inhibition of accumulation of sorbitol in crystalline lenses of diabetic rats; type: in vivo, Sprague Dawley rats
Description: as §1, §2, §3, §4, §5

[5] = Curative effect of single dose: plasma glucose; type: in vivo, Sprague Dawley rats; conditions: for Plasma glucose, treated: 10 mg/kg oral 24 h after diabetes induction
Description: (§6) 2.3.2. Curative effect: CP 3192 AR was administered 24 hours after induction of diabetes.
(§7) As before, the experiment was made on 33 male Sprague Dawley rats weighing about 200 g. The 33 rats, which had been fasted the previous day, were made diabetic by an intraperitoneal injection of streptozotocin (75 mg/kg).
(§8) 24 hours after induction of diabetes, 3 rats were sacrificed and used as diabetic controls. A dose of 10 mg/kg of CP 3192 AR was orally administered to 15 rats whereas the other 15 were given the excipient without an active product. 3 control rats and 3 rats treated with CP 3192 AR were sacrificed 2, 4, 8, 24 and 48 hours after administration of the product.
(§9) Estimates were made of the effects of the product on the proportion of plasma glucose and the sorbitol content of the crystalline lenses and sciatic nerves of rats made diabetic by streptozotocin.

[6] = test system: accumulation of sorbitol in the sciatic nerves; assay: Curative effect of single dose: sorbitol in sciatic nerves; type: in vivo, Sprague Dawley rats; conditions: for Accumulation of sorbitol in sciatic nerves, treated: 10 mg/kg oral
Description: as §6, §7, §8, §9

[7] = test system: sorbitol accumulation in sciatic nerves; assay: Effect of in vivo doses on sorbitol accumulation in sciatic nerves of diabetic rats; design: species or system Sprague Dawley rats
Excerpt: 2.2 Effect of "in vivo" doses on sorbitol accumulation in sciatic nerves and crystalline lenses of diabetic rats:
Estimates were made of the effects of the products on the proportion of plasma glucose and the sorbitol content of the crystalline lenses and sciatic nerves of rats.

[8] = Effect of in vivo doses on plasma glucose of diabetic rats; design: species or system Sprague Dawley rats; conditions: n = 5, average ± standard deviation
Description: Compound No. 1 (CP 3182 AR) and No. 2 (CP 3192 AR) were evaluated at various doses, using the experimental model described hereinbefore (.sctn.2.1).
In the case of each product, 25 Sprague Dawley rats fasted the previous day were made diabetic by an intraperitoneal injection of streptozotocin (75 mg/kg). The rats were divided into 5 groups of 5, each orally given 0.3, […] or 10 mg/kg of CP 3182 AR or a control.
An identical experiment was performed with CP 3192 AR at the same doses. Treatment was given immediately after the streptozotocin, and 7 and 24 hours later. The animals were sacrificed 27 hours after induction. Estimates were made of the effects of the products on the proportion of plasma glucose and the sorbitol content of the crystalline lenses and sciatic nerves of rats.

Compound: CC(=O)OCN1C(=O)N(COC(C)=O)C2(C1=O)c1ccccc1-c1ccccc12 [Compound 2, bis-(1',3'-acetoxymethyl)-spiro-/fluorene-9,4'-imidazolidine/-2',5'-dione]
- Accumulation of sorbitol in sciatic nerves, treated ([1]; 2 h, p < 0.05): 1.23 ± 0.2 µg
- Accumulation of sorbitol in sciatic nerves, treated ([1]; 4 h, p < 0.005): 1.8 ± 0.2 µg
- Accumulation of sorbitol in sciatic nerves, treated ([1]; 8 h, p < 0.0005): 1.8 ± 0.5 µg
- Accumulation of sorbitol in sciatic nerves, treated ([1]; 24 h, p < 0.05): 4.0 ± 1.0 µg
- Accumulation of sorbitol in sciatic nerves, treated ([1]; 48 h, p < 0.05): 4.6 ± 1.7 µg
- Inhibition of accumulation of sorbitol in vivo, in sciatic nerves [2]: 85%
- LD50 at 336 h [3]: > 3000 mg/kg
- Inhibition of accumulation of sorbitol in vivo, crystalline lenses ([4]; oral 25 mg/kg at 0, 7 and 24 h, sacrificed 27 h): 86%
- inhibition of accumulation of sorbitol in crystalline lenses and sciatic nerves (in words) ([4]; oral 25 mg/kg, lenses and sciatic nerves): particularly active
- Plasma glucose, treated ([5]; 2 h): 406 ± 28 mg/100 ml
- Plasma glucose, treated ([5]; 4 h): 459 ± 73 mg/100 ml
- Plasma glucose, treated ([5]; 8 h): 575 ± 14 mg/100 ml
- Plasma glucose, treated ([5]; 24 h): 478 ± 83 mg/100 ml
- Plasma glucose, treated ([5]; 48 h): 456 ± 117 mg/100 ml
- effect on the proportion of plasma glucose ([5]; single dose 10 mg/kg): no effect
- mutagenic effect (Ames test): does not have a mutagenic effect
- Accumulation of sorbitol in sciatic nerves, treated ([6]; 2 h after administration): 4.8 ± 2.0 µg
- Accumulation of sorbitol in sciatic nerves, treated ([6]; 4 h after administration, n = 1): 4.0 µg
- Accumulation of sorbitol in sciatic nerves, treated ([6]; 8 h after administration, n = 1): 2.2 µg
- Accumulation of sorbitol in sciatic nerves, treated ([6]; 24 h after administration): 2.5 ± 0.4 µg
- Accumulation of sorbitol in sciatic nerves, treated ([6]; 48 h after administration): 5.9 ± 1.8 µg
- proportion of sorbitol in sciatic nerves (in words) ([6]; single dose 10 mg/kg): greatly reduces
- % inhibition of sorbitol accumulation, Sciatic nerves ([7]; 0.3 mg/kg oral at 0, 7, 24 h): 42 ± 9%
- % inhibition of sorbitol accumulation, Sciatic nerves ([7]; 1 mg/kg oral at 0, 7, 24 h): 40 ± 17%
- % inhibition of sorbitol accumulation, Sciatic nerves ([7]; 3 mg/kg oral at 0, 7, 24 h): 68 ± 11%
- % inhibition of sorbitol accumulation, Sciatic nerves ([7]; 10 mg/kg oral at 0, 7, 24 h): 79 ± 9%
- ED50 ([7]; Rattus norvegicus, 27 h, sciatic nerves, diabetic rats, oral, read-out: ED50 (dose at which measured inhibition of aldose reductase activity is 50%)): 1 mg/kg
- therapeutic index MED/ED50, sciatic nerves ([7]; sciatic nerves): above 3 000
- Plasma glucose ([8]; 0.3 mg/kg oral): 425 ± 82 mg/100 ml
- Plasma glucose ([8]; 1 mg/kg oral): 444 ± 76 mg/100 ml
- Plasma glucose ([8]; 3 mg/kg oral): 446 ± 70 mg/100 ml
- Plasma glucose ([8]; 10 mg/kg oral): 472 ± 55 mg/100 ml
